Assay results reported in the supplement of paper PMC10307832.

What was measured:
Assay in all cases: relative viability (nuclei count vs DMSO), 5 days (fraction); higher = more cells survive
[1] = compound: CN(c1ncccc1CNc1nc(Nc2ccc3c(c2)CC(=O)N3)ncc1C(F)(F)F)S(C)(=O)=O + COc1cccc2cc(-c3nc([C@H]4CC[C@H](C(=O)O)CC4)n4ncnc(N)c34)[nH]c12 [OSI-027] (partner 0.5 µM)
Procedure, shortened: (§1)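 Lung cancer cell lines were pin-tool dosed in 1536-well plates on the day after seeding, with either a lone drug or a fixed anchor-drug dose plus five library-drug doses (not always all listed) in √10 steps. Nuclei were counted on 4× images after 5 days. Relative viability is the ratio of treated-well to vehicle-well nuclei counts, with each value a median of duplicate plates.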

[2] = compound: CN(c1ncccc1CNc1nc(Nc2ccc3c(c2)CC(=O)N3)ncc1C(F)(F)F)S(C)(=O)=O + C[C@@H](Oc1cc(-c2cnn(C3CCNCC3)c2)cnc1N)c1c(Cl)ccc(F)c1Cl [Crizotinib] (partner 1 µM)
Procedure, shortened: as §1

[3] = compound: CN(c1ncccc1CNc1nc(Nc2ccc3c(c2)CC(=O)N3)ncc1C(F)(F)F)S(C)(=O)=O + Cc1cc(Nc2cc(N3CCN(C)CC3)nc(Sc3ccc(NC(=O)C4CC4)cc3)n2)n[nH]1 [Tozasertib] (partner 0.1 µM)
Procedure, shortened: as §1

[4] = compound: CN(c1ncccc1CNc1nc(Nc2ccc3c(c2)CC(=O)N3)ncc1C(F)(F)F)S(C)(=O)=O + C[C@]1(O)C[C@@H](c2nc(-c3ccc4ccc(-c5ccccc5)nc4c3)c3c(N)nccn32)C1 [Linsitinib] (partner 1 µM)
Procedure, shortened: as §1

Cell Line	relative viability ([1]; first compound 0.01 µM)	relative viability ([1]; first compound 0.03162 µM)	relative viability ([1]; first compound 0.1 µM)	relative viability ([1]; first compound 0.3162 µM)	relative viability ([1]; first compound 1 µM)	relative viability ([2]; first compound 0.01 µM)	relative viability ([2]; first compound 0.03162 µM)	relative viability ([2]; first compound 0.1 µM)	relative viability ([2]; first compound 0.3162 µM)	relative viability ([2]; first compound 1 µM)	relative viability ([3]; first compound 0.01 µM)	relative viability ([3]; first compound 0.03162 µM)	relative viability ([3]; first compound 0.1 µM)	relative viability ([3]; first compound 0.3162 µM)	relative viability ([3]; first compound 1 µM)	relative viability ([4]; first compound 0.01 µM)	relative viability ([4]; first compound 0.03162 µM)	relative viability ([4]; first compound 0.1 µM)	relative viability ([4]; first compound 0.3162 µM)	relative viability ([4]; first compound 1 µM)
NCI-H1944	0.401	0.445	0.38	0.453	0.439	0.998	1.11	1.08	1.08	1.06	0.238	0.279	0.247	0.261	0.243	1.22	1.18	1.16	1.13	1.28
HCC-78	0.378	0.399	0.36	0.421	0.353	0.379	0.342	0.305	0.29	0.319	0.463	0.428	0.427	0.45	0.332	0.654	0.578	0.425	0.439	0.486
NCI-H2405	0.617	0.676	0.572	0.51	0.533	0.865	0.835	0.801	0.813	0.744	0.696	0.719	0.715	0.534	0.499	0.899	0.935	0.818	0.865	0.824
SK-LU-1	0.343	0.411	0.371	0.351	0.284	0.944	0.882	0.858	0.808	0.784	0.339	0.308	0.307	0.294	0.262	0.936	1.12	0.966	1.02	0.97
EMC-BAC-2	0.377	0.364	0.339	0.418	0.371	0.798	0.817	0.717	0.78	0.778	0.302	0.283	0.287	0.255	0.246	0.797	0.838	0.792	0.79	0.804
NCI-H596	0.698	0.799	0.664	0.731	0.669	0.988	0.928	0.894	0.986	0.999	0.886	0.938	0.899	0.813	0.632	1	1.12	1.02	1.05	0.896
LCLC-97TM1	0.512	0.524	0.42	0.458	0.576	–	0.434	0.416	0.224	0.181	0.281	0.194	0.256	0.218	0.18	–	0.226	0.167	0.216	0.152
H3255	0.606	0.611	0.488	0.568	0.598	0.945	1.03	0.832	0.663	0.839	0.808	0.599	0.775	0.571	0.51	0.924	0.949	0.988	0.912	0.922
LXF-289	0.806	0.807	0.707	0.641	0.762	0.851	0.875	0.824	0.788	0.773	0.176	0.178	0.242	0.18	0.17	1.03	1.03	0.95	0.947	0.936
UMC-11	0.461	0.477	0.45	0.459	0.421	0.59	0.584	0.654	0.476	0.298	0.198	0.184	0.187	0.181	0.206	0.979	1.02	1.03	0.952	0.781
LC-2-ad	0.874	0.851	0.905	0.827	0.758	0.491	0.465	0.514	0.435	0.469	0.417	0.433	0.546	0.426	0.442	0.85	0.784	0.862	0.786	0.847
SK-MES-1	0.562	0.571	0.475	0.491	0.429	0.943	0.989	0.944	0.983	0.846	0.896	0.923	0.852	0.836	0.47	1.04	1.06	1.08	0.925	1.01
A-427	0.472	0.553	0.504	0.44	0.475	0.916	0.964	0.951	0.783	0.725	0.223	0.191	0.207	0.186	0.211	1.12	1.12	1.1	1.14	1.06
NCI-H322M	0.562	0.598	0.537	0.599	0.623	0.902	0.948	–	0.953	0.892	0.505	0.504	0.491	0.504	0.472	1.02	1.08	–	1.1	1.16
HCC-366	0.786	1.01	0.846	0.996	0.973	0.588	0.964	0.509	0.606	0.236	0.129	0.143	0.126	0.0925	0.0651	0.488	0.913	0.591	0.576	0.508
NCI-H1975	0.747	0.675	0.796	0.694	0.615	0.999	0.981	0.911	0.96	0.746	0.737	0.793	0.784	0.665	0.46	1.01	1.22	1.02	0.925	0.821
NCI-H1437	0.96	0.929	0.917	0.876	0.773	0.912	1.02	0.884	0.856	0.77	0.424	0.483	0.397	0.411	0.355	0.988	1.08	1.08	0.978	0.951
NCI-H2009	0.714	0.617	0.607	0.663	0.671	1.01	1.06	1.06	1.02	1.04	0.631	0.696	0.744	0.693	0.625	1.14	1.18	1.18	1.24	1.09
NCI-H1651	0.802	0.794	0.738	0.796	0.739	0.858	0.85	0.871	0.846	0.884	0.67	0.719	0.671	0.681	0.515	0.996	0.999	1.25	0.994	0.993
LCLC-103H	0.497	0.399	0.422	0.448	0.424	1.14	1.08	1.11	0.906	0.895	0.469	0.457	0.414	0.415	0.466	1.1	1.1	0.983	0.977	0.88
NCI-H1666	0.779	0.841	0.792	0.695	0.556	0.968	0.951	0.781	0.596	0.642	0.606	0.615	0.514	0.725	0.362	0.814	0.816	0.943	0.72	0.612
NCI-H1734	0.581	0.612	0.534	0.609	0.545	0.684	0.734	0.752	0.656	0.618	0.239	0.273	0.27	0.269	0.258	0.939	1.01	0.796	0.966	0.751
EPLC-272H	0.276	0.294	0.305	0.344	0.279	0.912	0.873	0.888	0.968	0.93	0.346	0.234	0.314	0.278	0.182	1.21	1.12	1.22	1.33	1.12
NCI-H2023	0.412	0.464	0.404	0.425	0.393	0.679	0.766	0.682	0.585	0.537	0.377	0.403	0.368	0.299	0.229	0.765	0.714	0.73	0.71	0.631
BEN	0.294	0.293	0.276	0.304	0.284	0.825	0.949	0.813	0.848	0.848	0.416	0.562	0.506	0.541	0.471	0.912	0.972	0.938	0.879	1.04
COR-L 105	0.668	0.784	0.747	0.615	0.583	0.64	0.649	0.779	0.747	0.47	0.365	0.322	0.341	0.399	0.247	0.964	1	1.09	0.882	0.67
ABC-1	0.424	0.537	0.432	0.498	0.499	1.12	1.21	1.09	1.15	1.17	0.173	0.161	0.158	0.137	0.172	0.908	0.914	0.75	0.814	0.967
